{"source": "patent US10167262B2", "about": "“Herbicidal substituted 3-arylpyrazoles” (FMC CORPORATION, priority 2014, dated 2019)", "assay_in_all_cases": "Test E pre-/postemergence greenhouse test, plant response rating 0-100", "type_in_all_cases": "in vivo", "key": {"[1]": {"tested_on": "Brazilian crabgrass (Digitaria horizontalis)", "settings": "Digitaria horizontalis, post-emergence, Postemergence, scale 0 to 100, read-out: Plant response rating, Crabgrass, Brazil", "from_the_text": "(§1) Seeds of plant species selected from corn (Zea mays), soybean (Glycine max), velvetleaf (Abutilon theophrasti), lambsquarters (Chenopodium album), wild poinsettia (Euphorbia heterophylla), palmer pigweed (Amaranthus palmeri), waterhemp (common waterhemp, Amaranthus rudis), surinam grass (Brachiaria decumbens), large (Lg) crabgrass (Digitaria sanguinalis), Brazilian crabgrass (Digitaria horizontalis), fall panicum (Panicum dichotomiflorum), giant foxtail (Setaria faberii), green foxtail (Setaria viridis), goosegrass (Eleusine indica), johnsongrass (Sorghum halepense), ragweed (common ragweed, Ambrosia elatior), barnyardgrass (Echinochloa crus-galli), sandbur (southern sandbur, Cenchrus echinatus), arrowleaf sida (Sida rhombifolia), Italian ryegrass (Lolium multiflorum), dayflower (Virginia (VA) dayflower, Commelina virginica), field bindweed (Convolvulus arvensis), morningglory (Ipomoea coccinea), nightshade (eastern black nightshade, Solanum ptycanthum), kochia (Kochia scoparia), yellow nutsedge (Cyperus esculentus), smartweed (ladysthumb smartweed, Polygonum persicaria), cocklebur (common cocklebur, Xanthium strumarium), and hairy beggarticks (Bidens pilosa), were planted into a silt loam soil and treated preemergence with test chemicals formulated in a non-phytotoxic solvent mixture which included a surfactant.\n(§2) At the same time, plants from these crop and weed species and also waterhemp_RES1, (ALS & Triazine resistant common waterhemp, Amaranthus rudis), and waterhemp_RES2, (ALS & HPPD resistant common waterhemp, Amaranthus rudis) were planted in pots containing Redi-Earth® planting medium (Scotts Company, 14111 Scottslawn Road, Marysville, Ohio 43041) comprising spaghnum peat moss, vermiculite, wetting agent and starter nutrients were treated with postemergence applications of test chemicals formulated in the same manner. Plants ranged in height from 2 to 18 cm for postemergence treatments (1- to 4-leaf stage).\n(§3) Treated plants and controls were maintained in a greenhouse for 14 to 21 days, after which time all species were compared to controls and visually evaluated. Plant response ratings, summarized in Table E, are based on a scale of 0 to 100 where 0 is no effect and 100 is complete control. A dash (-) response means no test result."}, "[2]": {"tested_on": "arrowleaf sida (Sida rhombifolia)", "settings": "Sida rhombifolia, post-emergence, Postemergence", "from_the_text": "as §1, §2, §3"}, "[3]": {"tested_on": "barnyardgrass (Echinochloa crus-galli)", "settings": "Echinochloa crus-galli, post-emergence, Postemergence, scale 0 to 100", "from_the_text": "as §1, §2, §3"}, "[4]": {"tested_on": "dayflower (Virginia (VA) dayflower, Commelina virginica)", "settings": "Commelina virginica, post-emergence, Postemergence, scale 0 to 100", "from_the_text": "as §1, §2, §3"}, "[5]": {"tested_on": "fall panicum (Panicum dichotomiflorum)", "settings": "Panicum dichotomiflorum, post-emergence, Postemergence, scale 0 to 100", "from_the_text": "as §1, §2, §3"}, "[6]": {"tested_on": "palmer pigweed (Amaranthus palmeri)", "settings": "Amaranthus palmeri, post-emergence, Postemergence, scale 0 to 100", "from_the_text": "as §1, §2, §3"}, "[7]": {"tested_on": "sandbur (southern sandbur, Cenchrus echinatus)", "settings": "Cenchrus echinatus, post-emergence, Postemergence, scale 0 to 100", "from_the_text": "as §1, §2, §3"}, "[8]": {"tested_on": "waterhemp (common waterhemp, Amaranthus rudis)", "settings": "Amaranthus tuberculatus, post-emergence, Postemergence, scale 0 to 100", "from_the_text": "as §1, §2, §3"}, "[9]": {"tested_on": "wild poinsettia (Euphorbia heterophylla)", "settings": "Euphorbia heterophylla, post-emergence, read-out: Plant response rating, Poinsettia, Wild", "from_the_text": "as §1, §2, §3"}}, "data": [{"compound": "CCCn1cc(C(=O)c2ccccc2)c(-c2cc(Cl)cc(Cl)c2)n1", "note": "[Compound 61, [3-(3,5-dichlorophenyl)-1-propyl-1H-pyrazol-4-yl]phenylmethanone]", "values": [{"measurement": "pest or weed control at 31 g/ha", "setting": "[1]; 31 g ai/ha", "value": 0, "unit": "%"}, {"measurement": "pest or weed control at 62 g/ha", "setting": "[1]; 62 g ai/ha", "value": 0, "unit": "%"}, {"measurement": "pest or weed control at 125 g/ha", "setting": "[1]; 125 g ai/ha", "value": 0, "unit": "%"}, {"measurement": "pest or weed control at 250 g/ha", "setting": "[1]; 250 g ai/ha", "value": 0, "unit": "%"}, {"measurement": "pest or weed control at 500 g/ha", "setting": "[1]; 500 g ai/ha", "value": 0, "unit": "%"}, {"measurement": "pest or weed control at 31 g/ha", "setting": "[2]; 31 g ai/ha, scale 0 to 100", "value": 30, "unit": "%"}, {"measurement": "pest or weed control at 62 g/ha", "setting": "[2]; 62 g ai/ha, scale 0 to 100", "value": 40, "unit": "%"}, {"measurement": "pest or weed control at 125 g/ha", "setting": "[2]; 125 g ai/ha, scale 0 to 100", "value": 40, "unit": "%"}, {"measurement": "pest or weed control at 250 g/ha", "setting": "[2]; 250 g ai/ha, scale 0 to 100", "value": 60, "unit": "%"}, {"measurement": "pest or weed control at 500 g/ha", "setting": "[2]; 500 g ai/ha, scale 0 to 100 (0 no effect, 100 complete control)", "value": 70, "unit": "%"}, {"measurement": "pest or weed control at 31 g/ha", "setting": "[3]; 31 g ai/ha", "value": 0, "unit": "%"}, {"measurement": "pest or weed control at 62 g/ha", "setting": "[3]; 62 g ai/ha", "value": 0, "unit": "%"}, {"measurement": "pest or weed control at 125 g/ha", "setting": "[3]; 125 g ai/ha", "value": 0, "unit": "%"}, {"measurement": "pest or weed control at 250 g/ha", "setting": "[3]; 250 g ai/ha", "value": 10, "unit": "%"}, {"measurement": "pest or weed control at 500 g/ha", "setting": "[3]; 500 g ai/ha", "value": 20, "unit": "%"}, {"measurement": "pest or weed control at 31 g/ha", "setting": "[4]; 31 g ai/ha", "value": 0, "unit": "%"}, {"measurement": "pest or weed control at 62 g/ha", "setting": "[4]; 62 g ai/ha", "value": 0, "unit": "%"}, {"measurement": "pest or weed control at 125 g/ha", "setting": "[4]; 125 g ai/ha", "value": 0, "unit": "%"}, {"measurement": "pest or weed control at 250 g/ha", "setting": "[4]; 250 g ai/ha", "value": 0, "unit": "%"}, {"measurement": "pest or weed control at 500 g/ha", "setting": "[4]; 500 g ai/ha", "value": 0, "unit": "%"}, {"measurement": "pest or weed control at 31 g/ha", "setting": "[5]; 31 g ai/ha", "value": 0, "unit": "%"}, {"measurement": "pest or weed control at 62 g/ha", "setting": "[5]; 62 g ai/ha", "value": 0, "unit": "%"}, {"measurement": "pest or weed control at 125 g/ha", "setting": "[5]; 125 g ai/ha", "value": 0, "unit": "%"}, {"measurement": "pest or weed control at 250 g/ha", "setting": "[5]; 250 g ai/ha", "value": 0, "unit": "%"}, {"measurement": "pest or weed control at 500 g/ha", "setting": "[5]; 500 g ai/ha", "value": 0, "unit": "%"}, {"measurement": "pest or weed control at 31 g/ha", "setting": "[6]; 31 g ai/ha", "value": 50, "unit": "%"}, {"measurement": "pest or weed control at 62 g/ha", "setting": "[6]; 62 g ai/ha", "value": 60, "unit": "%"}, {"measurement": "pest or weed control at 125 g/ha", "setting": "[6]; 125 g ai/ha", "value": 60, "unit": "%"}, {"measurement": "pest or weed control at 250 g/ha", "setting": "[6]; 250 g ai/ha", "value": 80, "unit": "%"}, {"measurement": "pest or weed control at 500 g/ha", "setting": "[6]; 500 g ai/ha", "value": 95, "unit": "%"}, {"measurement": "pest or weed control at 31 g/ha", "setting": "[7]; 31 g ai/ha", "value": 0, "unit": "%"}, {"measurement": "pest or weed control at 62 g/ha", "setting": "[7]; 62 g ai/ha", "value": 0, "unit": "%"}, {"measurement": "pest or weed control at 125 g/ha", "setting": "[7]; 125 g ai/ha", "value": 0, "unit": "%"}, {"measurement": "pest or weed control at 250 g/ha", "setting": "[7]; 250 g ai/ha", "value": 0, "unit": "%"}, {"measurement": "pest or weed control at 500 g/ha", "setting": "[7]; 500 g ai/ha", "value": 0, "unit": "%"}, {"measurement": "pest or weed control at 31 g/ha", "setting": "[8]; 31 g ai/ha", "value": 20, "unit": "%"}, {"measurement": "pest or weed control at 62 g/ha", "setting": "[8]; 62 g ai/ha", "value": 30, "unit": "%"}, {"measurement": "pest or weed control at 125 g/ha", "setting": "[8]; 125 g ai/ha", "value": 75, "unit": "%"}, {"measurement": "pest or weed control at 250 g/ha", "setting": "[8]; 250 g ai/ha", "value": 100, "unit": "%"}, {"measurement": "pest or weed control at 31 g/ha", "setting": "[9]", "value": 0, "unit": "%"}, {"measurement": "pest or weed control at 62 g/ha", "setting": "[9]", "value": 0, "unit": "%"}, {"measurement": "pest or weed control at 125 g/ha", "setting": "[9]", "value": 0, "unit": "%"}, {"measurement": "pest or weed control at 250 g/ha", "setting": "[9]", "value": 10, "unit": "%"}, {"measurement": "pest or weed control at 500 g/ha", "setting": "[9]", "value": 30, "unit": "%"}]}]}
